# Results published in patent US7910102B2 (priority 2006, dated 2011).
# Where “and” joins values, the source holds several entries; their conditions need not be identical. Equal values may be shown once. Entries after “also recorded” stand apart in the source; their conditions may differ. Bridge positions count the residues as written; N and C are the ends. Square brackets hold non-standard residues; d marks the D form. Ends that are not written are not given here. Peptide text beside a SMILES is read from it. 1Nal = N[C@@H](Cc1cccc2ccccc12)C(=O)O
# B1: FcLoop-L2-ShK-L2: ShK inserted into the human IgG1 Fc-loop domain with Gly linkers (protein)
# chain: MDKTHTCPPCPAPELLGGPSVFLFPPKPKDTLMISRTPEVTCVVVDVSHEDPEVKFNWYVDGVEVHNAKTKPREEQYNSTYRVVSVLTVLHQDWLNGKEYKCKVSNKALPAPIEKTISKAKGQPREPQVYTLPPSRDELGGRSCIDTIPKSRCTAFQCKHSMKYRLSFCRKTCGTCGGTKNQVSLTCLVKGFYPSDIAVEWESNGQPENNYKTTPPVLDSDGSFFLYSKLTVDKSRWQQGNVFSCSVMHEALHNHYTQKSLSLSPGK
# modifications: Definition of Artificial Sequence: Synthetic protein
# B2: FcLoop-L4-OsK1-L4: FcLoop OSK1 toxin conjugate as named in b1013 only (protein)
# chain: MDKTHTCPPCPAPELLGGPSVFLFPPKPKDTLMISRTPEVTCVVVDVSHEDPEVKFNWYVDGVEVHNAKTKPREEQYNSTYRVVSVLTVLHQDWLNGKEYKCKVSNKALPAPIEKTISKAKGQPREPQVYTLPPSRDELGGGGGVIINVKCKISRQCLEPCKKAGMRFGKCMNGKCHCTPKGGTKNQVSLTCLVKGFYPSDIAVEWESNGQPENNYKTTPPVLDSDGSFFLYSKLTVDKSRWQQGNVFSCSVMHEALHNHYTQKSLSLSPGK
# B3: FcLoop-L2-OsK1-L2: OsK1 inserted into the human IgG1 Fc-loop domain with Gly linkers (protein)
# chain: MDKTHTCPPCPAPELLGGPSVFLFPPKPKDTLMISRTPEVTCVVVDVSHEDPEVKFNWYVDGVEVHNAKTKPREEQYNSTYRVVSVLTVLHQDWLNGKEYKCKVSNKALPAPIEKTISKAKGQPREPQVYTLPPSRDELGGGVIINVKCKISRQCLEPCKKAGMRFGKCMNGKCHCTPKGGTKNQVSLTCLVKGFYPSDIAVEWESNGQPENNYKTTPPVLDSDGSFFLYSKLTVDKSRWQQGNVFSCSVMHEALHNHYTQKSLSLSPGK
# modifications: Definition of Artificial Sequence: Synthetic protein
# B4: PEGylated CH2-OSK1: CH2-OSK1 fusion protein mono-PEGylated with 20 kD methoxy-PEG-aldehyde (conjugate)
# chain: MGGHHHHHHGGGPSVFLFPPKPKDTLMISRTPEVTCVVVDVSHEDPEVKFNWYVDGVEVHNAKTKPREEQYNSTYRVVSVLTVLHQDWLNGKEYKCKVSNKALPAPIEKTISGGGGSGGGGSGVIINVKCKISRQCLEPCKKAGMRFGKCMNGKCHCTPK
# Assays:
# [1] = tested on: IFN-g production in human whole blood; type: cell-based
# [2] = tested on: IL-2 production in human whole blood; type: cell-based
# [3] = target: T1, human Kv1.3 (Homo sapiens, UniProt P22001); type: cell-based; parameters: expressed in transfected cells
# [4] = target: T1, human Kv1.3; type: cell-based; details: for IC50: read-out: IC50 Sustained
# [5] = tested on: CD40L on CD4+ T cells; type: cell-based, human
# [6] = tested on: IL-2R on CD4+ T cells; type: cell-based, human
# T1 sequence (P22001 whole entry): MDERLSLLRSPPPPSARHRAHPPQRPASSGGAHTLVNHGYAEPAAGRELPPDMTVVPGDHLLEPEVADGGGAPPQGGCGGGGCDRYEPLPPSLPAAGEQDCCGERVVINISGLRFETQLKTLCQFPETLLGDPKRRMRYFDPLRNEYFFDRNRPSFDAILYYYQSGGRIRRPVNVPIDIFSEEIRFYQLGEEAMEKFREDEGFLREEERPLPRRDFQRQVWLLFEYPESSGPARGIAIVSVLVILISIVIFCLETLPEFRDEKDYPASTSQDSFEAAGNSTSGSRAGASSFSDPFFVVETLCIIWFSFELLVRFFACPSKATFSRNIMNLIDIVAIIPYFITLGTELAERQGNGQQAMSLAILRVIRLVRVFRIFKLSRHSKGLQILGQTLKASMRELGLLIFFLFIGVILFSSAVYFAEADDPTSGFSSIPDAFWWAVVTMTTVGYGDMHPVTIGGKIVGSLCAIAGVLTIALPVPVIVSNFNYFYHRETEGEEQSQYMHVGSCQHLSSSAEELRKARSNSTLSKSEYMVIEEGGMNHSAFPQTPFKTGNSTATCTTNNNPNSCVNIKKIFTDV
molecule,measurement,setting,value
"CC[C@H](C)[C@@H]1NC(=O)[C@H](CCCCN)NC(=O)[C@@H](NC(=O)[C@H](CCCCN)NC(=O)[C@@H](NC(=O)[C@H](CC(N)=O)NC(=O)[C@@H](NC(=O)[C@@H](NC(=O)[C@@H](NC(=O)CN)C(C)C)[C@@H](C)CC)[C@@H](C)CC)C(C)C)CSSC[C@@H]2NC(=O)[C@H](CCCCN)NC(=O)CNC(=O)[C@H](Cc3ccccc3)NC(=O)[C@H](CCCNC(=N)N)NC(=O)[C@H](CCSC)NC(=O)CNC(=O)[C@H](C)NC(=O)[C@H](Cc3cccc4ccccc34)NC(=O)[C@H](CCCCN)NC(=O)[C@@H]3CSSC[C@@H](C(=O)N[C@H](C(=O)N4CCC[C@H]4C(=O)N[C@@H](CCCCN)C(=O)O)[C@@H](C)O)NC(=O)[C@H](Cc4c[nH]cn4)NC(=O)[C@H](CSSC[C@H](NC(=O)[C@H](CCC(N)=O)NC(=O)[C@H](CCCNC(=N)N)NC(=O)[C@H](CO)NC1=O)C(=O)N[C@@H](CC(C)C)C(=O)N[C@@H](CCC(=O)O)C(=O)N1CCC[C@H]1C(=O)N3)NC(=O)[C@H](CCCCN)NC(=O)CNC(=O)[C@H](CC(N)=O)NC(=O)[C@H](CCSC)NC2=O [K20Nal] (H-GVIINVKCKISRQCLEPCK[1Nal]AGMRFGKCMNGKCHCTPK-OH; disulfide 8-28, 14-33, 18-35)",IC50,"[1]; read-out: Analogue Activity (IC50, pM) WB/IFNg",12 pM
"CC[C@H](C)[C@@H]1NC(=O)[C@H](CCCCN)NC(=O)[C@@H](NC(=O)[C@H](CCCCN)NC(=O)[C@@H](NC(=O)[C@H](CC(N)=O)NC(=O)[C@@H](NC(=O)[C@@H](NC(=O)[C@@H](NC(=O)CN)C(C)C)[C@@H](C)CC)[C@@H](C)CC)C(C)C)CSSC[C@@H]2NC(=O)[C@H](CCCCN)NC(=O)CNC(=O)[C@H](Cc3ccccc3)NC(=O)[C@H](CCCNC(=N)N)NC(=O)[C@H](CCSC)NC(=O)CNC(=O)[C@H](C)NC(=O)[C@H](CCCCN)NC(=O)[C@H](CCCCN)NC(=O)[C@@H]3CSSC[C@@H](C(=O)N[C@H](C(=O)N4CCC[C@H]4C(=O)N[C@@H](CCCCN)C(=O)O)[C@@H](C)O)NC(=O)[C@H](Cc4c[nH]cn4)NC(=O)[C@H](CSSC[C@H](NC(=O)[C@H](CCC(N)=O)NC(=O)[C@H](CCCNC(=N)N)NC(=O)[C@H](CO)NC1=O)C(=O)N[C@@H](CC(C)C)C(=O)N[C@@H](CCC(=O)O)C(=O)N1CCC[C@H]1C(=O)N3)NC(=O)[C@H](CCCCN)NC(=O)CNC(=O)[C@H](CC(N)=O)NC(=O)[C@H](C)NC2=O [OSK1[Ala-29]] (H-GVIINVKCKISRQCLEPCKKAGMRFGKCANGKCHCTPK-OH; disulfide 8-28, 14-33, 18-35)",potency in blocking the cytokine response relative to cyclosporin A (in words),[2],several orders of magnitude more potent
same,inhibition of the Kv1.3 current (in words),[3],potent inhibition of the Kv1.3 current
"Fc-L10-OSK1[K7S,E16K,K20D]: OSK1-peptibody with triple amino acid substitutions at positions 7, 16 and 20",fold less potent than the synthetic OSK1 toxin peptide,[4],approximately 21 fold
Fc-L10-OSK1[K7S],fold less potent than the synthetic OSK1 toxin peptide,[4],approximately 10 fold
Fc-L10-ShK[2-35]: human IgG1 Fc fused via L10 linker to ShK[2-35]; peptibody,block of thapsigargin-induced IL-2 production in human whole blood (in words),[2],suppressed; also recorded: potently blocked IL-2 secretion
same,block of thapsigargin-induced IFN-g production in human whole blood (in words),[1],suppressed; also recorded: blocked
same,block of thapsigargin-induced upregulation of CD40L on T cells (in words),[5],blocked
same,block of thapsigargin-induced upregulation of the IL-2R on T cells (in words),[6],blocked
PEG-Fc-L10-OSK1,IC50,[4],256 pM and 332 pM
PEG-Fc-L10-SHK(2-35),IC50,[4],175 pM and 158 pM
"SEQ ID No: 4989: OSK1 analog without beta strand 1 (labeled des 1-7), Table 42 (CKISRQCLKPCKDAGMRFGKCMNGKCHC-NH2; ends and bridges not checked)",blockade of the whole blood cytokine response / inflammation (in words),[2],still retain activity in blocking inflammation
"dendrotoxin-K [DTX-K, reference compound]",block of thapsigargin-induced upregulation of CD40L on T cells (in words),[5],no significant activity
same,block of thapsigargin-induced upregulation of the IL-2R on T cells (in words),[6],no significant activity
"iberiotoxin (QFTDVDCSVSKECWSVCKDLFGVDRGKCMGKKCRCYQ; Definition of Artificial Sequence: Synthetic peptide) [IbTx, reference compound]",block of thapsigargin-induced IL-2 production in human whole blood (in words),[2],no significant activity
same,block of thapsigargin-induced IFN-g production in human whole blood (in words),[1],no significant activity
same,block of thapsigargin-induced upregulation of CD40L on T cells (in words),[5],no significant activity
same,block of thapsigargin-induced upregulation of the IL-2R on T cells (in words),[6],no significant activity
B1,blockade of the whole blood cytokine response / inflammation (in words),[2],IC50 values in the pM range
B2,blockade of the whole blood cytokine response / inflammation (in words),[2],IC50 values in the pM range
B3,blockade of the whole blood cytokine response / inflammation (in words),[2],IC50 values in the pM range
B4,blockade of the whole blood cytokine response / inflammation (in words),[2],active in blocking inflammation; also recorded: modest blockade of the whole blood cytokine response
